Measurements taken from patent publication US20090192077A1, “North-2'deoxy -methanocarbathymidines as antiviral agents for treatment of kaposi's sarcoma-associated herpes virus” (priority 2005, published 2009).

Assays:
[1] = target: HSV-1 TK (Human herpesvirus 1, UniProt P0DTH5); conditions: cited from earlier work
[2] = target: EBV TK (Epstein-Barr virus, UniProt P03177); conditions: cited from earlier work
[3] = test system: human cellular TK; conditions: cited from earlier work
[4] = test system: BCBL-1 cells; assay: Intracellular phosphorylation in KSHV-infected BCBL-1 cells (HPLC of methanolic extracts)
Procedure: Exponentially growing BCBL-1 cells or CEM-SS cells (a human T cell line) were washed three times with PBS and cultured in serum free AIM-V w/BSA medium (Invitrogen) at 2×10^5 cells/mL in the absence (unstimulated control) or presence of 20 ng/mL PMA. After 24 hours, unstimulated and PMA-stimulated cells were harvested, washed once with PBS and resuspended in serum free AIM-V […] radiolabeled compound [^3H]-(N)-MCT, [^3H]-CDV or [^3H]-GCV. Control cultures containing the same concentration of the test compounds but without the radiolabeled formulations were simultaneously set up in an identical manner to assess the cell counts and to evaluate their anti-KSHV activity. In selected experiments, 5′-ET was added at 10˜50 μM to investigate the changes in the anti-KSHV activity and intracellular phosphorylation profiles of the test compounds. The cells were harvested after 24 or 72 hours of incubation.
Upon harvest, the cells were centrifuged at 1,500 rpm for 10 min and washed once with cold PBS. The cell pellets were resuspended in 250 μL of 60% methanol and heated at 95° C. for 3 min, followed by a microcentrifugation at 12,000 g for 10 min at 4° C. The clarified supernatant fractions were evaporated under nitrogen, redissolved in 250 μL of water and subjected to HPLC separation of the phosphorylated metabolites as described in detail elsewhere (Noy, R. et al. 2002 Mol Cancer Ther 1:585-93; Zalah, L. et al. 2002 Antiviral Res 55:63-75). Fractions containing radiolabeled nucleotides were quantitated based on the known specific activity of the parent tritiated nucleoside (Noy, R. et al. 2002 Mol Cancer Ther 1:585-93; Zalah, L. et al. 2002 Antiviral Res 55:63-75).

[5] = test system: CEM-SS cells; assay: Intracellular phosphorylation in uninfected CEM-SS cells; conditions: 10 μM N-MCT, with or without PMA-stimulation
Procedure: Exponentially growing BCBL-1 cells or CEM-SS cells (a human T cell line) were washed three times with PBS and cultured in serum free AIM-V w/BSA medium (Invitrogen) at 2×10^5 cells/mL in the absence (unstimulated control) or presence of 20 ng/mL PMA. After 24 hours, unstimulated and PMA-stimulated cells were harvested, washed once with PBS and resuspended in serum free AIM-V w/BSA medium at 2×10^5 cells/mL without PMA in the absence or presence of 10 μM N-MCT, CDV or GCV and 5 μCi/mL of the corresponding radiolabeled compound [^3H]-(N)-MCT, [^3H]-CDV or [^3H]-GCV. Control cultures containing the same concentration of the test compounds but without the radiolabeled formulations were simultaneously set up in an identical manner to assess the cell counts and to evaluate their anti-KSHV activity. In selected experiments, 5′-ET was added at 10˜50 μM to investigate the changes in the anti-KSHV activity and intracellular phosphorylation profiles of the test compounds. The cells were harvested after 24 or 72 hours of incubation.
Upon harvest, the cells were centrifuged at 1,500 rpm for 10 min and washed once with cold PBS. […] Fractions containing radiolabeled nucleotides were quantitated based on the known specific activity of the parent tritiated nucleoside (Noy, R. et al. 2002 Mol Cancer Ther 1:585-93; Zalah, L. et al. 2002 Antiviral Res 55:63-75).

EBV TK, sequence (P03177 whole entry): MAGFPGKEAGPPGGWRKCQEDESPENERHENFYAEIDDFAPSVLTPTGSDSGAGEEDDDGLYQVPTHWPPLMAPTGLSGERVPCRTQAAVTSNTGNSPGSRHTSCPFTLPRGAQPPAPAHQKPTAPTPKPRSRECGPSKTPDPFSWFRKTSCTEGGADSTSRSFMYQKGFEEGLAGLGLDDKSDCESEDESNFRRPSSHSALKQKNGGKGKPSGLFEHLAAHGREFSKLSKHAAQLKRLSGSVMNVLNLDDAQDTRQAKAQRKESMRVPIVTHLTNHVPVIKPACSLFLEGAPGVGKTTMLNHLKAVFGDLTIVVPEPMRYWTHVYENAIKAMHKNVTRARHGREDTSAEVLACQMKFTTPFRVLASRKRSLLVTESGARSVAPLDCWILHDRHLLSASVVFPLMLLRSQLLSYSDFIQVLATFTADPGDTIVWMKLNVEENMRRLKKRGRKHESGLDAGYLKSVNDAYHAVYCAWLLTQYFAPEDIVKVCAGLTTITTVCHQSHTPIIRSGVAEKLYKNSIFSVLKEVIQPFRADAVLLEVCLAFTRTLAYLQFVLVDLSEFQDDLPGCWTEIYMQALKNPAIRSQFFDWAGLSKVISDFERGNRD
HSV-1 TK, sequence (P0DTH5 whole entry): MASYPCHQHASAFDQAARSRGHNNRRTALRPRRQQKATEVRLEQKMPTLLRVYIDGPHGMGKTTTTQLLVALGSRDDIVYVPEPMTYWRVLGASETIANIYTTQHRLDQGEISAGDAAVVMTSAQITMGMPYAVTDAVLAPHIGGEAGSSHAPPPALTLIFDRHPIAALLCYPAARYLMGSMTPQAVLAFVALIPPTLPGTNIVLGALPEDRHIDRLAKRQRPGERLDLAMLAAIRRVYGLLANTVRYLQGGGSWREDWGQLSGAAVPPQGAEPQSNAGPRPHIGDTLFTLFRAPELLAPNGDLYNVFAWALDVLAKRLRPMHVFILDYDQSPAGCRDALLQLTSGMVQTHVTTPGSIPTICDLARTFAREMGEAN

| Structure (SMILES) | inhibitory activity against HSV-1 TK [1] | inhibitory activity against EBV TK [2] | inhibitory activity against human cellular TK [3] | intracellular level compared with CDV-DP and GCV-TP ([4]; 10 μM of each compound, up to 72 hours, especially PMA-stimulated BCBL-1) | level of phosphorylated metabolite in the presence of 50 μM 5'-ET ([4]; PMA-induced BCBL-1, 1, 3 or 10 μM N-MCT) | accumulation of phosphorylated metabolite in uninfected cells [5] |
| --- | --- | --- | --- | --- | --- | --- |
| C#CC(O)[C@H]1O[C@@H](n2cc(C)c(=O)[nH]c2=O)C[C@@H]1O (stereo partly drawn) [5′-ET, 5′-ethynylthymidine] | strong inhibitory activity | strong inhibitory activity | not against human cellular TK |  |  |  |
| Cc1cn([C@H]2C[C@H](O)[C@]3(COP(=O)(O)OP(=O)(O)OP(=O)(O)O)C[C@H]23)c(=O)[nH]c1=O [N-MCT-TP, North-methanocarbathymidine triphosphate] |  |  |  | significantly higher | substantially decreased | no appreciable accumulations |
